Key:
HUVECS [1] = assay: HUVECS cell viability (mts) after antisense with or without drug; type: cell-based, human
Experimental: HUVECS were grown for 2 days in wells after seeding at 1200 per well. Antisense oligonucleotide of Seq. ID No. 5 (4 μg/ml with LIPOFECTIN™) was added in serum free medium and incubated with the cells for 4 hours. Then 100 μl of serum was added and incubation was continued overnight. The next day, 150 μl of drug solution in serum medium was added. After two days, 20 μl of mts solution was added and left for approximately 3 hours. Cell viability was determined as the difference between absorption at 490 and 595 nm.

HUVECS [2] = details: by the induction of apoptosis; cited from earlier work
[3] = Table 3 series, Drug alone (200 nM doxorubicin)
[4] = Table 2 series, Drug alone (100 nM camptothecin)
[5] = Table 1 series, Drug alone (100 nM paclitaxel)
[6] = Table 1 series, AS 50 nM, no drug
[7] = Table 1 series, AS 100 nM, no drug
[8] = Table 1 series, AS 200 nM, no drug
[9] = Table 1 series, Drug (100 nM paclitaxel) + AS 50 nM
[10] = Table 1 series, Drug (100 nM paclitaxel) + AS 100 nM
[11] = Table 1 series, Drug (100 nM paclitaxel) + AS 200 nM
[12] = Table 2 series, AS 50 nM, no drug
[13] = Table 2 series, AS 100 nM, no drug
[14] = Table 2 series, AS 200 nM, no drug
[15] = Table 2 series, Drug (100 nM camptothecin) + AS 50 nM
[16] = Table 2 series, Drug (100 nM camptothecin) + AS 100 nM
[17] = Table 2 series, Drug (100 nM camptothecin) + AS 200 nM
[18] = Table 3 series, AS 50 nM, no drug
[19] = Table 3 series, AS 100 nM, no drug
[20] = Table 3 series, AS 200 nM, no drug
[21] = Table 3 series, Drug (200 nM doxorubicin) + AS 50 nM
[22] = Table 3 series, Drug (200 nM doxorubicin) + AS 100 nM
[23] = Table 3 series, Drug (200 nM doxorubicin) + AS 200 nM

For `COc1cccc2c1C(=O)c1c(O)c3c(c(O)c1C2=O)C[C@@](O)(C(=O)CO)C[C@@H]3O[C@H]1C[C@H](N)[C@H](O)[C@H](C)O1` [doxorubicin, reference compound], the “absorbance at 490 nm (mts, cell viability)” value (shortened to “absorbance at 490 nm”) (HUVECS [1]; [3]) is given as 0.74, the “absorbance at 595 nm (mts, cell viability)” value (“absorbance at 595 nm” below) (HUVECS [1]; [3]) is given as 0.08 and the “concentration range that inhibits Huvecs” value (HUVECS [2]) is given as “low nanomolar range”.
In the case of `CC[C@@]1(O)C(=O)OCc2c1cc1n(c2=O)Cc2cc3ccccc3nc2-1` [camptothecin, reference compound], the “absorbance at 490 nm” value (HUVECS [1]; [4]) is given as 0.55, the “absorbance at 595 nm” value (HUVECS [1]; [4]) is given as 0.07 and the “concentration range that inhibits Huvecs” value (HUVECS [2]) is given as “low nanomolar range”.
In the case of `CC(=O)O[C@H]1C(=O)[C@@]2(C)[C@H]([C@H](OC(=O)c3ccccc3)[C@]3(O)C[C@H](OC(=O)[C@H](O)[C@@H](NC(=O)c4ccccc4)c4ccccc4)C(C)=C1C3(C)C)[C@]1(OC(C)=O)CO[C@@H]1C[C@@H]2O` [paclitaxel, reference compound], the “absorbance at 490 nm” value (HUVECS [1]; [5]) is given as 0.53, the “absorbance at 595 nm” value (HUVECS [1]; [5]) is given as 0.12 and the “concentration range that inhibits Huvecs” value (HUVECS [2]) is given as “low nanomolar range”.
For “AS: Antisense oligonucleotide of Seq. ID No. 5, which reduces the effective amount of clusterin (antisense CAGCAGCAGAGTCTTCATCAT; listed as DNA, chemistry not given here)”, the “cell viability response to antisense concentration” value (HUVECS [1]; FIG. 1, paclitaxel series) was “dose dependent response”, the “cell viability response to antisense in the presence of drug versus absence” value (from here on “cell viability response … of drug versus absence”) (HUVECS [1]; FIG. 1, in the presence of 100 nM paclitaxel) was “the response is greater” and the “cell viability response to antisense concentration” value (HUVECS [1]; FIG. 2, camptothecin series) was “dose dependent response”. The “cell viability response … of drug versus absence” value (HUVECS [1]; FIG. 2, in the presence of 100 nM camptothecin) was “the response is greater”, the “cell viability response to antisense concentration” value (HUVECS [1]; FIG. 3, doxorubicin series) was “dose dependent response” and the “cell viability response … of drug versus absence” value (HUVECS [1]; FIG. 3, in the presence of 200 nM doxorubicin) was “the response is greater”. For the same compound, the “absorbance at 490 nm” value (HUVECS [1]; [6]) was 0.66, the “absorbance at 595 nm” value (HUVECS [1]; [6]) was 0.04 and the “absorbance at 490 nm” value (HUVECS [1]; [7]) was 0.40. For the same compound, the “absorbance at 595 nm” value (HUVECS [1]; [7]) was 0.09, the “absorbance at 490 nm” value (HUVECS [1]; [8]) was 0.28 and the “absorbance at 595 nm” value (HUVECS [1]; [8]) was 0.07. The “absorbance at 490 nm” value (HUVECS [1]; [9]) was 0.50, the “absorbance at 595 nm” value (HUVECS [1]; [9]) was 0.09 and the “absorbance at 490 nm” value (HUVECS [1]; [10]) was 0.24. The “absorbance at 595 nm” value (HUVECS [1]; [10]) was 0.04, the “absorbance at 490 nm” value (HUVECS [1]; [11]) was 0.17 and the “absorbance at 595 nm” value (HUVECS [1]; [11]) was 0.05. For the same compound, the “absorbance at 490 nm” value (HUVECS [1]; [12]) was 0.66, the “absorbance at 595 nm” value (HUVECS [1]; [12]) was 0.10 and the “absorbance at 490 nm” value (HUVECS [1]; [13]) was 0.39. The “absorbance at 595 nm” value (HUVECS [1]; [13]) was 0.06, the “absorbance at 490 nm” value (HUVECS [1]; [14]) was 0.21 and the “absorbance at 595 nm” value (HUVECS [1]; [14]) was 0.04. For the same compound, the “absorbance at 490 nm” value (HUVECS [1]; [15]) was 0.53, the “absorbance at 595 nm” value (HUVECS [1]; [15]) was 0.07 and the “absorbance at 490 nm” value (HUVECS [1]; [16]) was 0.31. For the same compound, the “absorbance at 595 nm” value (HUVECS [1]; [16]) was 0.08, the “absorbance at 490 nm” value (HUVECS [1]; [17]) was 0.15 and the “absorbance at 595 nm” value (HUVECS [1]; [17]) was 0.05. The “absorbance at 490 nm” value (HUVECS [1]; [18]) was 0.66, the “absorbance at 595 nm” value (HUVECS [1]; [18]) was 0.07 and the “absorbance at 490 nm” value (HUVECS [1]; [19]) was 0.35. For the same compound, the “absorbance at 595 nm” value (HUVECS [1]; [19]) was 0.05, the “absorbance at 490 nm” value (HUVECS [1]; [20]) was 0.22 and the “absorbance at 595 nm” value (HUVECS [1]; [20]) was 0.04. The “absorbance at 490 nm” value (HUVECS [1]; [21]) was 0.66, the “absorbance at 595 nm” value (HUVECS [1]; [21]) was 0.06 and the “absorbance at 490 nm” value (HUVECS [1]; [22]) was 0.32. The “absorbance at 595 nm” value (HUVECS [1]; [22]) was 0.04, the “absorbance at 490 nm” value (HUVECS [1]; [23]) was 0.18 and the “absorbance at 595 nm” value (HUVECS [1]; [23]) was 0.02. The “effect of antisense on inhibition of cell proliferation induced by antiproliferative drugs” value (HUVECS [1]; paclitaxel, camptothecin, doxorubicin, downregulation of clusterin) was “enhanced”.

Reference: patent US20040224914A1, “Method for treatment of angiogenic disorders” (The University of British Columbia, priority 2003, published 2004)
